Measured values: article PMC11808136, “Screening and identification of host signaling pathways for alleviating influenza-induced production of pro-inflammatory cytokines, IP-10, IL-8, and MCP-1, using a U937 cell-based influenza model” (Frontiers in Microbiology, 2025)
Like-named read-outs stand apart in the source and are kept apart here.

Assays:
[1] = system: IL-8 production in influenza virus-infected U937 cells (H1N1); assay: cells; assay type: cell-based, Human; settings: for EC50: read-out: EC50 IL-8
[2] = system: IP-10 production in influenza virus-infected U937 cells (H1N1); assay: cells; assay type: cell-based
[3] = system: MCP-1 production in influenza virus-infected U937 cells (H1N1); assay: cells; assay type: cell-based
[4] = system: IL-8 production in influenza virus-infected U937 cells (H3N2); assay: cells; assay type: cell-based, Human
[5] = system: IP-10 production in influenza virus-infected U937 cells (H3N2); assay: cells; assay type: cell-based, Human
[6] = system: MCP-1 production in influenza virus-infected U937 cells (H3N2); assay: cells; assay type: cell-based, Human
[7] = system: IL-8 production in influenza virus-infected U937 cells (H7N8); assay: cells; assay type: cell-based, Human
[8] = system: IP-10 production in influenza virus-infected U937 cells (H7N8); assay: cells; assay type: cell-based, Human
[9] = system: MCP-1 production in influenza virus-infected U937 cells (H7N8); assay: cells; assay type: cell-based, Human
[10] = target: T1, JAK2 (Homo sapiens, UniProt O60674); assay: Cell-free kinase activity assay, JAK2; assay type: biochemical
T1 construct: purchased KinaseProfiler (Eurofin, Brussels, Belgium)
T1 sequence (O60674 whole entry): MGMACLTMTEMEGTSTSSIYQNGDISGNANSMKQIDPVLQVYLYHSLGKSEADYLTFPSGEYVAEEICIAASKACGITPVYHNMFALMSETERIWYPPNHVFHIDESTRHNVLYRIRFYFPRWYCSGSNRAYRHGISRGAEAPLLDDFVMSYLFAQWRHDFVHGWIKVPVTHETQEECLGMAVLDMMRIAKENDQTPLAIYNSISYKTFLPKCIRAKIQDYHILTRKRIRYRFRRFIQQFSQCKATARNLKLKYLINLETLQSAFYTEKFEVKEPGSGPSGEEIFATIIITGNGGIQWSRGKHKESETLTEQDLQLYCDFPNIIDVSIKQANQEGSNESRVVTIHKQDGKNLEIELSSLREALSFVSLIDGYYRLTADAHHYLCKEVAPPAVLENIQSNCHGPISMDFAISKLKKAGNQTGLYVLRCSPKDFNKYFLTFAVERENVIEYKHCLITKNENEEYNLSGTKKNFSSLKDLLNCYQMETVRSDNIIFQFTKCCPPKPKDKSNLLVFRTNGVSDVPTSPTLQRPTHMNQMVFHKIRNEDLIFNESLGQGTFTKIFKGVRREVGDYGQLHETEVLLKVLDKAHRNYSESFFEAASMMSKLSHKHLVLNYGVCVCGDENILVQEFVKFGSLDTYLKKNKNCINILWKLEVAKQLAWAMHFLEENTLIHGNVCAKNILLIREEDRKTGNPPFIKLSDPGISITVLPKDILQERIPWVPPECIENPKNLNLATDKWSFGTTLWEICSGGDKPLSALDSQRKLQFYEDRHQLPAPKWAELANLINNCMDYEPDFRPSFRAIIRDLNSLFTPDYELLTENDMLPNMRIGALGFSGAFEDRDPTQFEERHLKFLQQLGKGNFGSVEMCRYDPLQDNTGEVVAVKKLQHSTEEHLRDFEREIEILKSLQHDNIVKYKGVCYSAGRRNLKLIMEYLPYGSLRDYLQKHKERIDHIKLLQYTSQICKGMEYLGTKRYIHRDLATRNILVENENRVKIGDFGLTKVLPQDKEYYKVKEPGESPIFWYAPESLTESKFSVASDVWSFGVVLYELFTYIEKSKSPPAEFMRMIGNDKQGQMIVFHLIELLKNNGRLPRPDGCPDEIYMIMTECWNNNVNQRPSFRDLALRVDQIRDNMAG

[11] = target: p38 (Homo sapiens, UniProt Q16539); assay: Cell-free kinase activity assay, p38; assay type: biochemical; settings: for p38 kinase activity in vitro: cell-free; for IC50: p38 kinases in vitro
Sequence of p38 (Q16539 whole entry): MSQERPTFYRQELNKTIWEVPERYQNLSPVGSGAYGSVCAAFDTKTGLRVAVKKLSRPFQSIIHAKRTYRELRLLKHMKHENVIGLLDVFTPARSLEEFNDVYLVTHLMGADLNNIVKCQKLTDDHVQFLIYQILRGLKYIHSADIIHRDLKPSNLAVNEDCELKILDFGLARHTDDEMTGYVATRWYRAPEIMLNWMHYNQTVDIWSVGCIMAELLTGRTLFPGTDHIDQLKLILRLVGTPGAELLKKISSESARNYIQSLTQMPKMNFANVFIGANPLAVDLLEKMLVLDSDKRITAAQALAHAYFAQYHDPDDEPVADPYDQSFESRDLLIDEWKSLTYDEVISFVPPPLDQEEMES

[12] = system: phosphorylation of p38 (p-p38); assay: Western blot of phosphorylated p38 in influenza-infected U937 cells; assay type: cell-based, Human; settings: for phosphorylation of p38: 24 h post-infection, western blot, cellular model
Experimental: (§1) Figure 6 TKIs repress cytokine production by suppressing the p38 pathway. […] Cells were lysed 24 h post-infection, and the levels of phosphorylated p38 and ERK (p-p38 and p-ERK) and total p38 and ERK were assessed by western blot. A quantification of phosphorylated p38 levels for each drug treatment was included in the right panel of each figure.
(§2) Cells were homogenized in RIPA lysis buffer containing a 1% protease inhibitor cocktail (Roche) to extract total protein. Equal amounts of protein homogenates were separated by SDS-PAGE (Bio-Rad) and transferred onto polyvinylidene difluoride membranes (pore size […]; Bio-Rad). The membranes were then blotted with monoclonal antibodies against GAPDH (1:1000, ZSGB-BIO), p38, phosphor-p38, ERK, phospho-ERK, STAT1, phosphor-STAT1 (1:1000; Cell Signaling Technology), STAT3, and phosphor-STAT3 (1:1000; Cell Signaling Technology), respectively. Protein levels were detected with horseradish peroxidase-tagged secondary antibodies and enhanced chemiluminescence western blot reagents (Advansta), followed by visualization using an enhanced chemiluminescence system (AlphaEase FluorChem System, Alpha Innotech Corp.). Bands were quantified using ImageJ (Ver. 1.46; NIH, Bethesda, MD).

[13] = system: STAT1 phosphorylation (p-STAT1); assay type: cell-based, Human
[14] = system: U937 cells
[15] = in vitro; settings: human
[16] = target: JAK1 (Homo sapiens, UniProt P23458); assay: Cell-free kinase activity assay, JAK1
Sequence of JAK1 (P23458 whole entry): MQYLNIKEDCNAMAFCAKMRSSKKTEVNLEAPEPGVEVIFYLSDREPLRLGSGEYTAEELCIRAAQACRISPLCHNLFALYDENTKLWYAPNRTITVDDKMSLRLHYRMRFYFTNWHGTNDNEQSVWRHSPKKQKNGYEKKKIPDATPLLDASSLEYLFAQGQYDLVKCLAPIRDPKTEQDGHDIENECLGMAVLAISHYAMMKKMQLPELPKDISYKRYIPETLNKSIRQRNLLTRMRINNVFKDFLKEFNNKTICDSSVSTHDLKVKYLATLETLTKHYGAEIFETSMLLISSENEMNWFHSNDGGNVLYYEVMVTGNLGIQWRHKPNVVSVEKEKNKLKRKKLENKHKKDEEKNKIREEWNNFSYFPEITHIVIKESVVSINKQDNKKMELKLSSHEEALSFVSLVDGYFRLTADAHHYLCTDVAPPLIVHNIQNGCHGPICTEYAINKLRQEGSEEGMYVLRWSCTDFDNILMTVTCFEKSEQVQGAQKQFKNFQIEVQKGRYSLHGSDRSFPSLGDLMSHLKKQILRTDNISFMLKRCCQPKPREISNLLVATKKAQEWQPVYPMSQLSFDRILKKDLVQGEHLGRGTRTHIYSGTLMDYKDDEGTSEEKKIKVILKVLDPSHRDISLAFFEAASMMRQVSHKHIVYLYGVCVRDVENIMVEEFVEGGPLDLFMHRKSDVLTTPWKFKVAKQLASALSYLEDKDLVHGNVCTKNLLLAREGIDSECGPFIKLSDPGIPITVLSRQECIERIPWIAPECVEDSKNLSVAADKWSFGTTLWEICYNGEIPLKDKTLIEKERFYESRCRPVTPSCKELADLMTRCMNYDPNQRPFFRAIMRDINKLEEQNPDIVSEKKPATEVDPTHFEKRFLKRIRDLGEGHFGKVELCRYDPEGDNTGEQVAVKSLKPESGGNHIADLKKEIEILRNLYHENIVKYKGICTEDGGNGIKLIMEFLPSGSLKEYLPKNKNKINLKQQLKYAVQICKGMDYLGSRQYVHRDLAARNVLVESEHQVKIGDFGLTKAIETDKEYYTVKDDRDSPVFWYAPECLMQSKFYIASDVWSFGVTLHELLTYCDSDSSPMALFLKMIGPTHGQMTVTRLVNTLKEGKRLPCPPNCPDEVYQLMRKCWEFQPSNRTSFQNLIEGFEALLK

[17] = system: ERK phosphorylation (p-ERK); assay: Western blot of phosphorylated ERK in influenza-infected U937 cells; assay type: cell-based, Human
Experimental: Figure 5 Raf/MEK/ERK and p38 signal pathways are involved in the regulation of cytokines in U937 cells. (A–C) Determination of inhibition rates on IL-8, IP-10, and MCP-1 by each compound in the MAPK group and the distribution of targets between subgroups. U937 cells were infected with influenza A/PuertoRico/8/1934 virus (MOI = 0.1) in the presence of 10 μM of each inhibitor and then incubated at 37°C for 48 h. The distribution of the targets of all the inhibitors in the MAPK group was then analyzed and categorized into subgroups. […] The supernatants were harvested 48 h post-infection, and the levels of IL-8, MCP-1, and IP-10 were measured by AlphaLISA. (E) The cells were treated as in (C) except being lysed 24 h post-infection, and the levels of phosphorylated STAT1, p38, ERK (p-STAT1, p-p38, p-ERK), total STAT1, p38, ERK, and viral protein HA were assessed by western blot. (F) A quantitative analysis of the relative levels of the phosphorylated STAT1, p38, ERK (p-STAT1, p-p38, p-ERK) in (E). The data are representative of at least three independent experiments. n.s. no significance; *p < 0.05; **p < 0.01; ***p < 0.001.
as §1
as §2, with “The membranes were then blotted with monoclonal antibodies against GAPDH (1:1000, ZSGB-BIO), p38, phosphor-p38, ERK, phospho-ERK, STAT1, phosphor-STAT1 (1:1000; Cell Signaling Technology), STAT3, and phosphor-STAT3 (1:1000; Cell Signaling Technology), respectively.” left out

[18] = Homo sapiens, U-937, secondary screen, Supplemental Table 1
[19] = Homo sapiens, U-937, read-out: EC50 IP-10
[20] = Homo sapiens, U-937, read-out: EC50 IL-8
[21] = Homo sapiens, U-937, read-out: EC50 MCP-1
[22] = Homo sapiens, U-937, read-out: IC50 p-p38
[23] = U937 cells, Table 1 section H1N1

`Cc1cc(Nc2nc(N[C@@H](C)c3ncc(F)cn3)ncc2Cl)n[nH]1` [AZD1480] showed an IC50 ([1]; Homo sapiens, U-937) of 7500 nM, an EC50 [1, 18] of 110 nM and an EC50 ([1]; Homo sapiens, U-937) of 7690 nM. The EC50 [2, 19] was 100 nM, the IC50 ([2]; Homo sapiens, U-937, read-out: IC50 IP-10) was 7110 nM and the EC50 ([2]; Homo sapiens, U-937; read-out: EC50 IP-10) was 7690 nM. For the same molecule, the EC50 ([3]; Homo sapiens, U-937, read-out: EC50 MCP-1, U937 cells infected with H1N1) was 6250 nM, the EC50 ([3]; Homo sapiens, U-937, read-out: EC50 MCP-1, secondary screen, Supplemental Table 1) was 30 nM and the IC50 ([3]; Homo sapiens, U-937, read-out: IC50 MCP-1) was 6300 nM. It also gave an EC50 ([4]; Homo sapiens, U-937) of 7140 nM, an EC50 ([5]; Homo sapiens, U-937) of 17 nM and an EC50 ([6]; Homo sapiens, U-937) of 478 nM. It also gave an EC50 [7, 20] of 215 nM, an EC50 [8, 19] of 57 nM and an EC50 [9, 21] of 714 nM. For the same molecule, the JAK2 activity ([10]; cell-free kinase assay) was “inhibited”, the “p38 kinase activity in vitro” value [11] was “failed to inhibit” and the IC50 [11] was over 100000 nM. The “phosphorylation of p38” value [12] was “suppress”, the IC50 [12, 22] was 5300 nM and the STAT1 phosphorylation levels [13] was “significantly reduced”. For the same molecule, the maximum non-toxic concentration ([14]; human) was 50 µM, the CC50 at 48 h [15] was 100000 nM and the CC50 ([15]; CC50, secondary screen, Supplemental Table 1) was 13500 nM. For the same molecule, the IC50 [16] was 430 nM and the JAK1 activity ([16]; cell-free kinase assay) was “inhibited”.

In the case of `CCS(=O)(=O)N1CC(CC#N)(n2cc(-c3ncnc4[nH]ccc34)cn2)C1` [Baricitinib], the JAK2 activity [10] is reported as “inhibited”, the “p38 kinase activity in vitro” value [11] is reported as “failed to inhibit” and the IC50 [11] is reported as over 1000 nM. For the same molecule, the “phosphorylation of p38” value [12] was “suppress”, the CC50 at 48 h [15] was 5380 nM and the CC50 ([15]; CC50) was over 100000 nM.

`Cc1nc(Nc2ncc(C(=O)Nc3c(C)cccc3Cl)s2)cc(N2CCN(CCO)CC2)n1` [Dasatinib] gave an IC50 ([1]; Homo sapiens, U-937) of 1900 nM, an EC50 [1, 18] of 2060 nM and an EC50 ([1]; Homo sapiens, U-937) of 1890 nM. The EC50 ([2]; Homo sapiens, U-937, U937 cells infected with H1N1; read-out: EC50 IP-10) was 1160 nM, the EC50 ([2]; Homo sapiens, U-937, secondary screen, Supplemental Table 1; read-out: EC50 IP-10) was 1300 nM and the EC50 ([3]; Homo sapiens, U-937, U937 cells infected with H1N1, read-out: EC50 MCP-1) was 190 nM. The EC50 ([3]; Homo sapiens, U-937, secondary screen, Supplemental Table 1, read-out: EC50 MCP-1) was 140 nM, the IC50 ([3]; Homo sapiens, U-937, production of MCP-1 in U937 cells infected with influenza virus, Table 4, read-out: IC50 MCP-1) was 190 nM and the EC50 ([4]; Homo sapiens, U-937) was 730 nM. For the same molecule, the EC50 ([5]; Homo sapiens, U-937) was 17 nM, the EC50 ([6]; Homo sapiens, U-937) was 18 nM and the EC50 [7, 20] was 135 nM. It also gave an EC50 [8, 19] of 14 nM, an EC50 [9, 21] of 44 nM and an IC50 [12, 22] of 1000 nM. For the same molecule, the STAT1 phosphorylation levels [13] was “significantly reduced”, the CC50 [14, 23] was over 100000 nM and the maximum non-toxic concentration ([14]; human) was 1 µM. The CC50 [15] was over 100000 nM and the CC50 at 48 h [15] was over 100000 nM.

`Cc1ccc(Nc2ncc3c(n2)N(C)C(=O)N(c2cc(NC(=O)c4cccc(C(F)(F)F)c4)ccc2C)C3)cn1` [GNF-7] gave an IC50 [1] of under 20 nM, an EC50 [1] of 19 nM and an EC50 ([1]; secondary screen, Supplemental Table 1) of under 5 nM. For the same molecule, the EC50 ([2]; U937 cells infected with H1N1; read-out: EC50 IP-10) was 71 nM, the EC50 ([2]; secondary screen, Supplemental Table 1; read-out: EC50 IP-10) was 20 nM and the EC50 ([3]; U937 cells infected with H1N1, read-out: EC50 MCP-1) was 18 nM. For the same molecule, the IC50 ([3]; production of MCP-1 in U937 cells infected with influenza virus, Table 4, read-out: IC50 MCP-1) was under 20 nM, the EC50 ([3]; secondary screen, Supplemental Table 1, read-out: EC50 MCP-1) was 10 nM and the EC50 [4] was 27 nM. It also gave an EC50 [5] of 1 nM, an EC50 [6] of 14 nM and an EC50 ([7]; read-out: EC50 IL-8) of 14 nM. For the same molecule, the EC50 ([8]; read-out: EC50 IP-10) was 5 nM, the EC50 ([9]; read-out: EC50 MCP-1) was 109 nM and the IC50 ([12]; phosphorylation of p38, western blot, Table 4, read-out: IC50 p-p38) was 10 nM. For the same molecule, the STAT1 phosphorylation levels [13] was “significantly reduced”, the “phosphorylation level of ERK” value [17] was “promoted” and the CC50 [14] was 13600 nM. It also gave a maximum non-toxic concentration [14] of 1 µM, a CC50 [14, 23] of 13600 nM and a CC50 ([14]; U937 cells, Table 1 section H3N2) of 13600 nM.
